IC50, Activity and TGI data for 7 compounds are collected here from ChEMBL document CHEMBL5614390, “Novel EGFR inhibitors against resistant L858R/T790M/C797S mutant for intervention of non-small cell lung cancer” (Eur J Med Chem, 2024).

Molecules are shown by their SMILES.

One assay has as its system MCF7. As to the kind of experiment: cells. The following applies: Homo sapiens, MCF7, 72 h.
For assay [1], the system named is PC-9. Briefly: cells. The following applies: Homo sapiens, PC-9, 72 h.
Description: Cytotoxicity against human PC-9 cells expressing EGFR Del19/T790M/C797S mutant assessed as inhibition of cell proliferation incubated for 72 hrs by CCK8 assay
Assay [2] relates to PC-9. Briefly: cells. Conditions: Homo sapiens, PC-9, 72 h. The source holds these as a separate data set.
Description: Cytotoxicity against human PC-9 cells expressing EGFR Del19 mutant assessed as inhibition of cell proliferation incubated for 72 hrs by CCK8 assay
In a further assay the test system is HCC827. As to the kind of experiment: cells. The following applies: Homo sapiens, HCC827, 72 h.
The subject of a further assay is A-431. As to the kind of experiment: cells. Conditions: Homo sapiens, A-431, 72 h.
Another assay relates to NCI-H1975. Briefly: cells. Conditions: Homo sapiens, NCI-H1975, 72 h.
Assay [3] has as its system PC-9. As to the kind of experiment: cells. The following applies: Homo sapiens, PC-9, 72 h. The source holds these as a separate data set.
Description: Cytotoxicity against human PC-9 cells expressing EGFR L858R/T790M/C797S mutant assessed as inhibition of cell proliferation incubated for 72 hrs by CCK8 assay
In assay [4] the test system is PC-9. As to the kind of experiment: Induction of apoptosis in human PC-9 cells expressing EGFR L858R/T790M/C797S mutant assessed as early apoptotic cells at 1 uM incubated for 48 hrs by Annexin V-FITC/PI staining based flow cytometric analysis (reference value: 0.210 %). The assay is classed as functional.
Assay [5] has as its system PC-9. As to the kind of experiment: Induction of apoptosis in human PC-9 cells expressing EGFR Del19/T790M/C797S mutant assessed as late apoptotic cells at 1 uM incubated for 48 hrs by Annexin V-FITC/PI staining based flow cytometric analysis (reference value: 0.040 %). The assay is classed as functional. A general note: Flow cytometry measures light scatter and fluorescence of single cells or particles in a stream.

Assay [6] deals with PC-9. As to the kind of experiment: Induction of apoptosis in human PC-9 cells expressing EGFR L858R/T790M/C797S mutant assessed as late apoptotic cells at 1 uM incubated for 48 hrs by Annexin V-FITC/PI staining based flow cytometric analysis (reference value: 0.360 %). The assay is classed as functional.
The test system of assay [7] is PC-9. As to the kind of experiment: Induction of apoptosis in human PC-9 cells expressing EGFR Del19/T790M/C797S mutant assessed as early apoptotic cells at 1 uM incubated for 48 hrs by Annexin V-FITC/PI staining based flow cytometric analysis (reference value: 0.050 %). The assay is classed as functional.
Assay [8] relates to PC-9. As to the kind of experiment: Induction of apoptosis in human PC-9 cells expressing EGFR L858R/T790M/C797S mutant assessed as viable cells at 1 uM incubated for 48 hrs by Annexin V-FITC/PI staining based flow cytometric analysis (reference value: 98.9 %). The assay is classed as functional.
For assay [9], the system named is PC-9. As to the kind of experiment: Induction of apoptosis in human PC-9 cells expressing EGFR Del19/T790M/C797S mutant assessed as viable cells at 1 uM incubated for 48 hrs by Annexin V-FITC/PI staining based flow cytometric analysis (reference value: 99.8 %). The assay is classed as functional.
The test system of assay [10] is PC-9. As to the kind of experiment: Antitumor activity against human PC-9 cells expressing EGFR L858R/T790M/C797S mutant xenografted in BALB/c nude mouse assessed as tumor growth inhibition at 40 mg/kg, po administered for 18 days relative to control. The assay is classed as functional. The following applies: time 18 day.
Assay [11] relates to PC-9. As to the kind of experiment: Induction of apoptosis in human PC-9 cells expressing EGFR L858R/T790M/C797S mutant assessed as necrotic cells at 1 uM incubated for 48 hrs by Annexin V-FITC/PI staining based flow cytometric analysis (reference value: 0.540 %). The assay is classed as functional.
Assay [12] relates to PC-9. Briefly: Induction of apoptosis in human PC-9 cells expressing EGFR Del19/T790M/C797S mutant assessed as necrotic cells at 1 uM incubated for 48 hrs by Annexin V-FITC/PI staining based flow cytometric analysis (reference value: 0.090 %). The assay is classed as functional.

Description for A-431: Cytotoxicity against human A-431 cells assessed as inhibition of cell proliferation incubated for 72 hrs by CCK8 assay
Description for HCC827: Cytotoxicity against human HCC827 cells expressing EGFR Del19 mutant assessed as inhibition of cell proliferation incubated for 72 hrs by CCK8 assay
Description for MCF7: Cytotoxicity against human MCF7 cells assessed as inhibition of cell proliferation incubated for 72 hrs by CCK8 assay
Description for NCI-H1975: Cytotoxicity against human NCI-H1975 cells expressing EGFR L858R/T790M mutant assessed as inhibition of cell proliferation incubated for 72 hrs by CCK8 assay

Take `C=CC(=O)Nc1cc(Nc2ncc(F)c(-c3ccc4cc(C(=O)N(C)C)n(C(C)C)c4c3)n2)ccc1N1CCN(C)CC1`: the IC50 with MCF7 was determined as 4040 nM; with PC-9 [1], 1960 nM; with PC-9 [2] it was 1980 nM; in the assay with HCC827, 1290 nM; in the assay on A-431, 4130 nM; with NCI-H1975, 1180 nM. In the assay on PC-9 [3], this compound yielded an IC50 of 2240 nM.

Consider `C=CC(=O)Nc1cc(Nc2ncc(F)c(-c3ccc4cc(C(=O)NC)n(C(C)C)c4c3)n2)c(OC)cc1N1CCN(C(C)C)CC1`, for which the IC50 was 3840 nM in the assay on MCF7; 2280 nM in the assay with PC-9 [1]; 1030 nM in the assay with PC-9 [2]; 2180 nM with HCC827; 4920 nM in the assay on A-431; 474 nM in the assay with NCI-H1975. The IC50 in the assay with PC-9 [3] is 200 nM.

For the compound `C=CC(=O)Nc1cc(Nc2ncc(F)c(-c3ccc4cc(C(=O)N(C)C)n(C(C)C)c4c3)n2)ccc1N1CCN(C(C)C)CC1`, the IC50 with MCF7 stood at 875 nM; in the assay with PC-9 [1], 251 nM; with PC-9 [2] it was 122 nM; in the assay on HCC827, 692 nM; in the assay with A-431, 441 nM; in the assay on NCI-H1975 it was 468 nM. Also, in the assay with PC-9 [3], half-maximal inhibition (IC50) required 380 nM.

Turning to `C=CC(=O)Nc1cc(Nc2nccc(-c3cn(C)c4ccccc34)n2)c(OC)cc1N(C)CCN(C)C` [OSIMERTINIB], the IC50 stood at 3520 nM in the assay with MCF7, 2790 nM in the assay on PC-9 [1], 15 nM in the assay on PC-9 [2] and 16 nM with HCC827. Moreover, the Activity worked out at 4.73% in the assay on PC-9 [4]; 6.39% in the assay with PC-9 [5]; 5.56% in the assay on PC-9 [6]; 3.39% in the assay with PC-9 [7]; 89% in the assay with PC-9 [8]; 85.5% with PC-9 [9]. Besides, the values for the Activity in the assay on PC-9 [11] and in the assay on PC-9 [12] were 0.67% and 4.73%, respectively. Besides, in the assay on PC-9 [10], the TGI worked out at 30.9%.

As to `C=CC(=O)Nc1cc(Nc2ncc(F)c(-c3ccc4cc(C(=O)NC)n(C(C)C)c4c3)n2)ccc1N1CCN(C(C)C)CC1`, the half-maximal inhibitory concentration (IC50) in the assay with MCF7 turned out to be 459 nM; in the assay on PC-9 [1] it was 258 nM; in the assay on PC-9 [2], 147 nM; with HCC827, 103 nM; in the assay with A-431, 46 nM; with NCI-H1975 it was 150 nM. Besides, in the assay on PC-9 [3], the IC50 is 138 nM.

As to `C=CC(=O)Nc1cc(Nc2ncc(F)c(-c3ccc4cc(C(=O)NC)n(C(C)C)c4c3)n2)c(OC)cc1N1CCN(C)CC1`, the IC50 in the assay with MCF7 is over 10000 nM; in the assay on PC-9 [1] it was 2190 nM; with PC-9 [2] it was 2090 nM; with HCC827, 1120 nM; with A-431, over 10000 nM; in the assay on NCI-H1975, 1160 nM. This compound also displayed a 50% inhibitory concentration (IC50) with PC-9 [3] of 1110 nM.

On to `C=CC(=O)Nc1cc(Nc2ncc(F)c(-c3ccc4cc(C(=O)NC)n(C(C)C)c4c3)n2)ccc1N(C)CCN(C)C`, for which the 50% inhibitory concentration (IC50) was 159 nM with MCF7; 48 nM in the assay with PC-9 [1]; 53 nM in the assay on PC-9 [2]; 385 nM in the assay on HCC827; 1020 nM with A-431; 44 nM in the assay on NCI-H1975. The same compound showed an IC50 in the assay on PC-9 [3] of 74 nM.

What is called IC50 is the concentration that inhibits the measured activity by half. A high value points to weaker potency in that assay. As usually defined, the TGI is how far tumour growth fell short of that in controls.
